Where only a bound is given, the exact number is not on record here.

The target of assay [1] is Macrophage colony-stimulating factor 1 receptor (Homo sapiens) (UniProt P07333). The assay is described as follows: Inhibition of FMS (unknown origin) at 1 uM.
Assay [2] concerns the target Tyrosine-protein kinase Yes (Homo sapiens) (UniProt P07947). Put plainly: Inhibition of YES1 (unknown origin) at 1 uM.
The target of assay [3] is NT-3 growth factor receptor (Homo sapiens) (UniProt Q16288). Put plainly: Inhibition of TRKC (unknown origin) at 1 uM.
NT-3 growth factor receptor (Homo sapiens), sequence (Q16288 32-839 limits assumed): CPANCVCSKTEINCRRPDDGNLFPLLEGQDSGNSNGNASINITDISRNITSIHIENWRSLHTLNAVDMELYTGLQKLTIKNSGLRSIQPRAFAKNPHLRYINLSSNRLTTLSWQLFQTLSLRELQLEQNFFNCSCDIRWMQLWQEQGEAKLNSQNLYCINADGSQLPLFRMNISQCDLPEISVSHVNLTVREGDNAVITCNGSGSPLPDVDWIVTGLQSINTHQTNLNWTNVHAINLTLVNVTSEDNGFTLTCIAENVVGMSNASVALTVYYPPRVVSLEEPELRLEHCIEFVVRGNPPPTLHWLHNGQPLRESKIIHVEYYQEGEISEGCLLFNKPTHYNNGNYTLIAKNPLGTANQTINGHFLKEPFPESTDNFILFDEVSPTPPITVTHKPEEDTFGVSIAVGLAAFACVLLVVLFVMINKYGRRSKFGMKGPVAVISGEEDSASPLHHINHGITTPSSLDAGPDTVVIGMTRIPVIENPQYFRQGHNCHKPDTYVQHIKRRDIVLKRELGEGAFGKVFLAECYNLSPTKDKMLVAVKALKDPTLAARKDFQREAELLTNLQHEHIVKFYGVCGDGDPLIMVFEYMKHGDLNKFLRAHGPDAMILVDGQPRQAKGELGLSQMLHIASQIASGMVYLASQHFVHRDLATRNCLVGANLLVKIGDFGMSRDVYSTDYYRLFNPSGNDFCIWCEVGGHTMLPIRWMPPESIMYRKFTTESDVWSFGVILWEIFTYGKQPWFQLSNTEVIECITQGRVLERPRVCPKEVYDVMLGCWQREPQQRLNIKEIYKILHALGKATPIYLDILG
Assay [4] addresses Serine/threonine-protein kinase pim-2 (Homo sapiens, UniProt Q9P1W9). The assay is described as follows: Inhibition of Pim2 (unknown origin) using luciferase-luciferin based ATP detection reagent by Kinase-Glo assay. As to conditions: read-out: IC50.
Assay [5] has as its target T1, Homeodomain-interacting protein kinase 4 (Homo sapiens) (UniProt Q8NE63).
T1 sequence (whole entry): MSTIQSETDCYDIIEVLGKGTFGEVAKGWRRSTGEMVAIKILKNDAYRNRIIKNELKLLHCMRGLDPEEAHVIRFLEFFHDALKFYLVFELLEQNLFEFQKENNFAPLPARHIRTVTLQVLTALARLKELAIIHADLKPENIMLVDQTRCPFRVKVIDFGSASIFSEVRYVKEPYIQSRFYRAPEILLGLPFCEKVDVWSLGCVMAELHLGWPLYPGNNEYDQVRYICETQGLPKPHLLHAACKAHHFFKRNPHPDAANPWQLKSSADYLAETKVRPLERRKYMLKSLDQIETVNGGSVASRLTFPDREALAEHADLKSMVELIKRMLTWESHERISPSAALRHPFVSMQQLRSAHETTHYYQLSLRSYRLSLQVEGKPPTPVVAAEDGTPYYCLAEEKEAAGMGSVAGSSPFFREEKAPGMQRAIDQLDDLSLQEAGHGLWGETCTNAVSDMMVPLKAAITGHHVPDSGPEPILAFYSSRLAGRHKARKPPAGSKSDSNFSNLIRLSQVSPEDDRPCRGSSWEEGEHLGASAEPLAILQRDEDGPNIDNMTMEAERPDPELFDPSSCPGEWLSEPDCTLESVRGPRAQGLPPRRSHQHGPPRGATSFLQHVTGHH
Put plainly: Inhibition of HIPK4 (unknown origin) at 1 uM.

The target in assay [6] is T2, Receptor-type tyrosine-protein kinase FLT3 (Homo sapiens, UniProt P36888).
T2 sequence (P36888 whole entry): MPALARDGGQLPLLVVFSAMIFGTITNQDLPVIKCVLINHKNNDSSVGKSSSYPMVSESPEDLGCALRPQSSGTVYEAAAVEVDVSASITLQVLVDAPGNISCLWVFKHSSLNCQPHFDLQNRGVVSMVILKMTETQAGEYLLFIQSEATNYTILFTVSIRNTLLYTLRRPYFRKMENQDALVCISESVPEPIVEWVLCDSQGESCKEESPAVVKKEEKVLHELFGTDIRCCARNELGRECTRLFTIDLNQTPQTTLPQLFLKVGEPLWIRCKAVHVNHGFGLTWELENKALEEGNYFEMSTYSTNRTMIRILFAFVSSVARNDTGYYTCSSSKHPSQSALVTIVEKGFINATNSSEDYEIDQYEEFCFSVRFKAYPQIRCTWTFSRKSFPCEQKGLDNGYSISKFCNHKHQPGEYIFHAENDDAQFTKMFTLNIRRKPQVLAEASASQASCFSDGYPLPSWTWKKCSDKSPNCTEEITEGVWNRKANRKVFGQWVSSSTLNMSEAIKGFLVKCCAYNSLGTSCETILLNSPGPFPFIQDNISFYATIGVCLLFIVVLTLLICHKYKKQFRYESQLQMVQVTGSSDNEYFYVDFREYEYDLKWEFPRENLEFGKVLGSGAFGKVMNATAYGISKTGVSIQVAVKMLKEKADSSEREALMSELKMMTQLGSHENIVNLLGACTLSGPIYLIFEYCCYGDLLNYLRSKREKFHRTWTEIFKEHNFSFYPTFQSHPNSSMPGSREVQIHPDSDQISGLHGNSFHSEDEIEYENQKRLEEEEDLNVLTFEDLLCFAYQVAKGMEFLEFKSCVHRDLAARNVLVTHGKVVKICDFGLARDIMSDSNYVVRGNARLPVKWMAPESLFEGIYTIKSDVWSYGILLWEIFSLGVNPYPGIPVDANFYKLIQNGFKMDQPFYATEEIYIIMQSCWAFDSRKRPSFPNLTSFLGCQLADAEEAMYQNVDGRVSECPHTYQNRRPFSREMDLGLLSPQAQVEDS
The assay is described as follows: Inhibition of human Flt3 (unknown origin).

Assay [7] concerns the target Receptor-type tyrosine-protein kinase FLT3 (Homo sapiens) (UniProt P36888). As to conditions: 1 uM.
Description: Inhibition of Flt3 (unknown origin) at 1 uM
In assay [8] the target is Voltage-gated inwardly rectifying potassium channel KCNH2 (Homo sapiens, UniProt Q12809). The assay is described as follows: Inhibition of human ERG expressed in CHO cells by automated patch clamp method. In kind it is cell-based.
Voltage-gated inwardly rectifying potassium channel KCNH2, sequence (Q12809 whole entry): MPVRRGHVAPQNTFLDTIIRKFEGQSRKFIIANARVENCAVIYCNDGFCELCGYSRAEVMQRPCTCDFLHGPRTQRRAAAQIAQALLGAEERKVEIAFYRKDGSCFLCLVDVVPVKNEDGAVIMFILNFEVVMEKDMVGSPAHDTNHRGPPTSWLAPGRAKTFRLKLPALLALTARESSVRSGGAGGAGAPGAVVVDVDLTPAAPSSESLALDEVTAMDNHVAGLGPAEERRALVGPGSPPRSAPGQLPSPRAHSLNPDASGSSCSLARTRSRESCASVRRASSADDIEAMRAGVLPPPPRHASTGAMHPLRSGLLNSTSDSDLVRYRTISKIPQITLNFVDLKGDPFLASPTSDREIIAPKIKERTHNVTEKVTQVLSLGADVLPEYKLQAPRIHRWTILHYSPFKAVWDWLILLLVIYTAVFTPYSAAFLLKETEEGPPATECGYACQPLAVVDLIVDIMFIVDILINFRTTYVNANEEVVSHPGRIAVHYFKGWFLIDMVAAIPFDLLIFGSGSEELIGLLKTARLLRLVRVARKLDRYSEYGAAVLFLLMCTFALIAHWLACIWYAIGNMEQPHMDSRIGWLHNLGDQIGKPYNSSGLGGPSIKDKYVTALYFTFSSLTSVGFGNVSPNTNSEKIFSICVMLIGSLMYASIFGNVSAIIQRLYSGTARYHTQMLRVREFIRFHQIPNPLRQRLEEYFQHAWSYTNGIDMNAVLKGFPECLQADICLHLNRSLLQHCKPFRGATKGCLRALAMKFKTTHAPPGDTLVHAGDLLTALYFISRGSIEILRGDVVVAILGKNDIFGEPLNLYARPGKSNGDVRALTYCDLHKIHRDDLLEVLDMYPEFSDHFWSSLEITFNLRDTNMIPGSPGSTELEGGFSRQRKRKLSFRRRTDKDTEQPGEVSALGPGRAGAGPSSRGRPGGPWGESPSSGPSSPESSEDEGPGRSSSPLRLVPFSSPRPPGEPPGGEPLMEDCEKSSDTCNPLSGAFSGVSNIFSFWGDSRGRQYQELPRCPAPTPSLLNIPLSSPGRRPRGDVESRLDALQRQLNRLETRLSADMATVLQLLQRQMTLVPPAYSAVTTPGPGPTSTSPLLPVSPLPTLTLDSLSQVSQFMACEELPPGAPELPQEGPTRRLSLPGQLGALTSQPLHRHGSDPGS
For assay [9], the target named is BDNF/NT-3 growth factors receptor (Homo sapiens) (UniProt Q16620). Put plainly: Inhibition of TRKB (unknown origin) at 1 uM.
BDNF/NT-3 growth factors receptor (Homo sapiens), sequence (Q16620 32-822 limits assumed): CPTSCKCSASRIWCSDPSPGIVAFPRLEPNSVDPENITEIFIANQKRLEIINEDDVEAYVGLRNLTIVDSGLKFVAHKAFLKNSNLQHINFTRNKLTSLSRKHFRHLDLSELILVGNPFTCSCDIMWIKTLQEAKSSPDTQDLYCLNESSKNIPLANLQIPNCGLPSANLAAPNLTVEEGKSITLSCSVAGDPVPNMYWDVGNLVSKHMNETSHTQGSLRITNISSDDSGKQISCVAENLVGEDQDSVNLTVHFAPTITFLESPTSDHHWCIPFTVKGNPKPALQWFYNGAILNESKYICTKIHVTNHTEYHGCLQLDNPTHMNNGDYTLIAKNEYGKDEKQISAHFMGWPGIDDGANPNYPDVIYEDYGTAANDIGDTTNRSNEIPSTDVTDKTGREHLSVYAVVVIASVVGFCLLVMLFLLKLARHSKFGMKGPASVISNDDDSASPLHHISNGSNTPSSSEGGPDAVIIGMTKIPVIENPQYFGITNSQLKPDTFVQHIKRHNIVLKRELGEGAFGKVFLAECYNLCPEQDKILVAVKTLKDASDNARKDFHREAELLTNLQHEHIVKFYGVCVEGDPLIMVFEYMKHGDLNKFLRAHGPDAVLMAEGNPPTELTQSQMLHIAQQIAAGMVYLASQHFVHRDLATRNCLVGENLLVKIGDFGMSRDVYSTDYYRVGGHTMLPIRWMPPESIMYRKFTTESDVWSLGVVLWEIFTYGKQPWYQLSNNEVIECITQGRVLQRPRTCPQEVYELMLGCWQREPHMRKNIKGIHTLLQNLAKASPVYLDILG
Assay [10] concerns the target High affinity nerve growth factor receptor (Homo sapiens) (UniProt P04629). The assay is described as follows: Inhibition of TRKA (unknown origin) at 1 uM.
Assay [11] concerns the target T3, Serine/threonine-protein kinase haspin (Homo sapiens) (UniProt Q8TF76).
T3 sequence (whole entry): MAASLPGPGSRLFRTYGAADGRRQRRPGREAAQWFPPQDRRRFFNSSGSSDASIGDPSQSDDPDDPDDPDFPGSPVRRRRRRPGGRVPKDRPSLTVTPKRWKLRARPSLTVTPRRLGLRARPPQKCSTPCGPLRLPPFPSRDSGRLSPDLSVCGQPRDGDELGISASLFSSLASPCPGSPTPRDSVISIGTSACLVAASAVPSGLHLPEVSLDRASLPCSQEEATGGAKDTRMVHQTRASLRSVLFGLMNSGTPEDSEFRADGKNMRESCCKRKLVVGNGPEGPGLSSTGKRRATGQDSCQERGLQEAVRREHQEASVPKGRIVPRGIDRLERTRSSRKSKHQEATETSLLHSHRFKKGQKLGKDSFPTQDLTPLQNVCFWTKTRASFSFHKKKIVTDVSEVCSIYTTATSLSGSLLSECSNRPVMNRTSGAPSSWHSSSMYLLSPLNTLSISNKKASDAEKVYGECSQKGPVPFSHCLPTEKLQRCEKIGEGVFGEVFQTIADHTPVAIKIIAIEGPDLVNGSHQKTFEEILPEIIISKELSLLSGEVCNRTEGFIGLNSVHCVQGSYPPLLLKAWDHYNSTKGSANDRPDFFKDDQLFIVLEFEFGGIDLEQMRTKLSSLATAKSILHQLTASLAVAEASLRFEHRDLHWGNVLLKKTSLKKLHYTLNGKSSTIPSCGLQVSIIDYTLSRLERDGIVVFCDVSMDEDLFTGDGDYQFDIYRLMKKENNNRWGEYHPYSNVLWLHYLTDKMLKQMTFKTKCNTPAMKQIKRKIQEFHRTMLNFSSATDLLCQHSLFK
The assay is described as follows: Inhibition of Haspin (unknown origin) at 1 uM.

Assay [12] addresses Homeodomain-interacting protein kinase 2 (Homo sapiens) (UniProt Q9H2X6). The assay is described as follows: Inhibition of HIPK2 (unknown origin) at 1 uM.

Serine/threonine-protein kinase pim-2, sequence (Q9P1W9 whole entry): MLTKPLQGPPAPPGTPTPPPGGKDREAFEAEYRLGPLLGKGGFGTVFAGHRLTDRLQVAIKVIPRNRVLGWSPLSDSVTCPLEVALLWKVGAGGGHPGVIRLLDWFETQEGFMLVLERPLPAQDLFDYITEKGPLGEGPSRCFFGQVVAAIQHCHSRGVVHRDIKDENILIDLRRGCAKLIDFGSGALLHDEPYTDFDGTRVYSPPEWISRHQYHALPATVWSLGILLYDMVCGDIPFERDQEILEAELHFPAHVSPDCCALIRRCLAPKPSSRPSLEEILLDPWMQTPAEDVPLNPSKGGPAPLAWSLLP
High affinity nerve growth factor receptor (Homo sapiens), sequence (P04629 33-796 limits assumed): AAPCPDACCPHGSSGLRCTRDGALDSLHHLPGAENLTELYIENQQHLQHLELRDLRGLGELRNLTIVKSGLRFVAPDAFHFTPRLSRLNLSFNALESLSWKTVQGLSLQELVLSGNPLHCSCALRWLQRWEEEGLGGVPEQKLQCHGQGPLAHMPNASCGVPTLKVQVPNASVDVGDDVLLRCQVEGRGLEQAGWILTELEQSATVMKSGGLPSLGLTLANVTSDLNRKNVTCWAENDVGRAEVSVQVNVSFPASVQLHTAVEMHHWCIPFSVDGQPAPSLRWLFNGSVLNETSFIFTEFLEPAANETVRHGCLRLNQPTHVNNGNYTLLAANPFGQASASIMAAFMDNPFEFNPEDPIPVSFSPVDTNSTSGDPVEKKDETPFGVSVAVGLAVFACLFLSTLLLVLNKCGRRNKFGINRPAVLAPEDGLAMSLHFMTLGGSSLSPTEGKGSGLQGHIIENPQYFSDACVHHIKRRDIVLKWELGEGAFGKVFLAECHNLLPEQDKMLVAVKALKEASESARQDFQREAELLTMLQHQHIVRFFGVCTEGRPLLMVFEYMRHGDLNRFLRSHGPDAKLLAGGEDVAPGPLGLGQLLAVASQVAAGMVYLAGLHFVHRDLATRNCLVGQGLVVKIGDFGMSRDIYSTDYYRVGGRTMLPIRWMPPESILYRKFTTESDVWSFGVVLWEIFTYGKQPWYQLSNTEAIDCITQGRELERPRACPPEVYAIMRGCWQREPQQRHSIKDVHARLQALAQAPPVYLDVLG
Macrophage colony-stimulating factor 1 receptor (Homo sapiens), sequence (P07333 whole entry): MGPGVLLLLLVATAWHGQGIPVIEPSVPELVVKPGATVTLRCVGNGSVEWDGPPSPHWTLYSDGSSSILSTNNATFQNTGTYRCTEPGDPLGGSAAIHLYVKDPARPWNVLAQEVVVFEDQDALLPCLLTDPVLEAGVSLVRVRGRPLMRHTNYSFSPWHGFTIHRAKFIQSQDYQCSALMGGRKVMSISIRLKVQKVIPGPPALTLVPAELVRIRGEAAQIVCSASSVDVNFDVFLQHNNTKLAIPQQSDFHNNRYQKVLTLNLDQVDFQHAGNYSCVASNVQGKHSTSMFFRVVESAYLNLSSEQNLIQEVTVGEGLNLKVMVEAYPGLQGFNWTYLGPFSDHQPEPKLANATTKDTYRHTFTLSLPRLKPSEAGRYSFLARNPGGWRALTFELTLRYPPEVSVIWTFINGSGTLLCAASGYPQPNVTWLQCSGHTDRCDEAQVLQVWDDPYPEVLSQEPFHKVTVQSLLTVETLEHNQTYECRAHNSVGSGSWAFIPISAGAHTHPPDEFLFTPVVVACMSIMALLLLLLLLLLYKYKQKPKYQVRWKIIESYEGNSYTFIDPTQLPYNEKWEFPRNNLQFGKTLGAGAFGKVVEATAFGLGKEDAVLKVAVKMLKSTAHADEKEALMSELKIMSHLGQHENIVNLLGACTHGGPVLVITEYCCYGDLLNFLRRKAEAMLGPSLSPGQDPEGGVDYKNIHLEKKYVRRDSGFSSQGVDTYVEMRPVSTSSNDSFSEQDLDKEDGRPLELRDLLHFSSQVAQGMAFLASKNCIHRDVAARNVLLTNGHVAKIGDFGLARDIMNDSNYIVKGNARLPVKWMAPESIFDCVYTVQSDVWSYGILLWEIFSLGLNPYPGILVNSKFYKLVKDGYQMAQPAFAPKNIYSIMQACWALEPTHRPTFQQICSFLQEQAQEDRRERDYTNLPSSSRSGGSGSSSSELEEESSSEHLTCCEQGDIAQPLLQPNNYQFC

One may read the inhibition as the relative decrease from the control value, in per cent. A word on the IC50: it is the concentration that gives 50% inhibition. For the compound `CC(C)(O)[C@H]1CC[C@H](Nc2ccn3ncc(-c4cccc(Cl)c4)c3n2)CC1`, the inhibition in assay [1] was above 50%; in assay [2], above 50%; in assay [3], 96%; in assay [5], above 80%; in assay [7], above 90%; in assay [9], above 90%. Further, the values for the inhibition in [10], in assay [11] and in assay [12] were above 80%, above 80% and above 50%, respectively. Besides, the half-maximal inhibitory concentration (IC50) in assay [4] was 228 nM; in assay [6], 125 nM; in assay [8], above 30000 nM.

The values are drawn from ChEMBL document CHEMBL3351833, “Synthesis and Biological Evaluation of Pyrazolo[1,5-a]pyrimidine Compounds as Potent and Selective Pim-1 Inhibitors” (ACS Med Chem Lett, 2015).
